pIC50: −log10 of the molar value.

For one data set, the target named is Carbonic anhydrase 2 (Homo sapiens, UniProt P00918). Nature of the data set: DRUGMATRIX: Carbonic Anhydrase II enzyme inhibition (substrate: 4-Nitrophenyl acetate (4-NPA)). As to conditions: erythrocyte; Not Active = under 50% inhibition at 10 µM. It counts as tissue-based, Erythrocyte.
Data set [1] deals with T1, Polyunsaturated fatty acid lipoxygenase ALOX15 (Oryctolagus cuniculus, UniProt P12530).
T1 sequence (P12530 whole entry): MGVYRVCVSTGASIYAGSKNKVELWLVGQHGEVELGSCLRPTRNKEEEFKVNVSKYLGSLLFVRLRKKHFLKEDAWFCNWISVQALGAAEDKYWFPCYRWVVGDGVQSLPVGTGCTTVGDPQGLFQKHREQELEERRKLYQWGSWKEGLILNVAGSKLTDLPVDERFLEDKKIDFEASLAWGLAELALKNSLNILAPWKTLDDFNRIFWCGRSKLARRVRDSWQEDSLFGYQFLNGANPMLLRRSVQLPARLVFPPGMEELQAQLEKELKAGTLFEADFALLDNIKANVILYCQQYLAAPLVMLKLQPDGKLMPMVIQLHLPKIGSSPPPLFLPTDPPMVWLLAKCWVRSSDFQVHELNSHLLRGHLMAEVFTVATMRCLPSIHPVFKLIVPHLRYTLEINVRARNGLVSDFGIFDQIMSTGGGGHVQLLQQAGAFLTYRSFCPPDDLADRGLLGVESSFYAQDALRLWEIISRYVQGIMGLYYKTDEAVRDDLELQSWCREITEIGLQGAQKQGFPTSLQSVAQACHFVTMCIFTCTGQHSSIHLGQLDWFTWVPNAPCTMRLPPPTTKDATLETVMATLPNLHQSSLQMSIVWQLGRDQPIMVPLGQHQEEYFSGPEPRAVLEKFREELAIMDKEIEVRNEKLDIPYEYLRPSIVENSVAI
Nature of the data set: biochemical. Conditions: for IC50 / Ki: reticulocytes. It is filed as tissue-based, Reticulocytes.

The target in another data set is T2, Cytochrome P450 2A6 (Homo sapiens, UniProt P11509). Also: in other assays of this panel Not Active means under 50% inhibition at 10 µM.
T2 sequence (P11509 whole entry): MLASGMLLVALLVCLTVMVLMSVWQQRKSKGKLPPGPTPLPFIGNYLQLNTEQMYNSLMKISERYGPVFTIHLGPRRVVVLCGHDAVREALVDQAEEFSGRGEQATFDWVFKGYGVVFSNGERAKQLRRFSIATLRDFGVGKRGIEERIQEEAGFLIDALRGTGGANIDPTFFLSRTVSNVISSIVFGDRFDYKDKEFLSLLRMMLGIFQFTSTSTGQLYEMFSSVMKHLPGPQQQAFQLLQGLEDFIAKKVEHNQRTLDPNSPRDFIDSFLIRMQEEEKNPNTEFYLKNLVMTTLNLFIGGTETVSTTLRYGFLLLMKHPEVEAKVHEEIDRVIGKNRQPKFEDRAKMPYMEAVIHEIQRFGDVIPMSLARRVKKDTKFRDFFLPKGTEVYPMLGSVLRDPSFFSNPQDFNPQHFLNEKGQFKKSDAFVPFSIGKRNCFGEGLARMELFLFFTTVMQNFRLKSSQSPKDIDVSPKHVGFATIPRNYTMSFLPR
As to conditions: bti-tn-5b1-4.

Data set [2] concerns the target Tyrosine-protein kinase Fyn (Homo sapiens, UniProt P06241). The experiment in a line: biochemical. It is filed as cell-based, Insect cells. Conditions: for pIC50: read-out: IC50; for IC50: insect cells.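 As to all read-outs here: enzymatic inhibition of Fyn kinase activity measured with Poly(Glu:Tyr) as the phosphorylation substrate; in other assays of this panel Not Active means under 50% inhibition at 10 µM.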
The next data set deals with T3, Caspase-1 (Homo sapiens, UniProt P29466).
T3 sequence (P29466 whole entry): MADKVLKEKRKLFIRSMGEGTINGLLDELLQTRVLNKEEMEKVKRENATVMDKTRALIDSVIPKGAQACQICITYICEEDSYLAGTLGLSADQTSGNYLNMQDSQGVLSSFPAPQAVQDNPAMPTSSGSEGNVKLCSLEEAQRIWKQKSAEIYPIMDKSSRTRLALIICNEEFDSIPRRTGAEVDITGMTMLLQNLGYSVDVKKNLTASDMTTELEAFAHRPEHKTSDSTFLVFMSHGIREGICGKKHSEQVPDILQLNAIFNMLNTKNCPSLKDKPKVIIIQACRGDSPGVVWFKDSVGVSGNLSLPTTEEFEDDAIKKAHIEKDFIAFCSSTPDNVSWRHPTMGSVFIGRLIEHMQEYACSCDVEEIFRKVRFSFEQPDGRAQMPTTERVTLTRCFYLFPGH
Set-up: species or system Escherichia coli.

Data set [3] in a line: DRUGMATRIX: ATPase, Na+/K+ enzyme inhibition (substrate: ATP). As to conditions: Not Active = under 50% inhibition at 10 µM. It is filed as tissue-based, Sus scrofa, Heart.
The next data set addresses T4, Estrogen receptor (Homo sapiens, UniProt P03372).
T4 sequence (P03372 whole entry): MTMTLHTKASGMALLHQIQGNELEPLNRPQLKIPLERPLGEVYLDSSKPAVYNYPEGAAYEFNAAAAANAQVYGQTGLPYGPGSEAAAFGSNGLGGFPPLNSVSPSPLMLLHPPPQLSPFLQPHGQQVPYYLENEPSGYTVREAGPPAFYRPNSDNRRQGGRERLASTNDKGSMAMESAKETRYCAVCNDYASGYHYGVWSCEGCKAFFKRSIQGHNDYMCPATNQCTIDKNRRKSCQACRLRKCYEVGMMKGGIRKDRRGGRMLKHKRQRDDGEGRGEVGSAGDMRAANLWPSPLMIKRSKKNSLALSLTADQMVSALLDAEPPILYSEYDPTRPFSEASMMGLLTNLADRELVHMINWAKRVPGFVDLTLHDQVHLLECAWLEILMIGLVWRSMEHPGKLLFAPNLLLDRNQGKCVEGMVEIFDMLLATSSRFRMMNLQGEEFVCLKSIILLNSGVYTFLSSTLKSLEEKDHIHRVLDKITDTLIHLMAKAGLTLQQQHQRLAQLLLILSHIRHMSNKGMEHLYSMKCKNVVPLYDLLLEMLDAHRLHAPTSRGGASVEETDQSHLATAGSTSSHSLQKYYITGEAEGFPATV
Conditions: sf9.

Data set [4] concerns the target Kappa-type opioid receptor (Homo sapiens, UniProt P41145). The experiment in a line: DRUGMATRIX: Opiate kappa (OP2, KOP) radioligand binding (ligand: [3H] Diprenorphine). It is filed as cell membranes, HEK293, Membrane. As to conditions: hek293; Not Active = under 50% inhibition at 10 µM.

Sequence of Kappa-type opioid receptor (P41145 whole entry): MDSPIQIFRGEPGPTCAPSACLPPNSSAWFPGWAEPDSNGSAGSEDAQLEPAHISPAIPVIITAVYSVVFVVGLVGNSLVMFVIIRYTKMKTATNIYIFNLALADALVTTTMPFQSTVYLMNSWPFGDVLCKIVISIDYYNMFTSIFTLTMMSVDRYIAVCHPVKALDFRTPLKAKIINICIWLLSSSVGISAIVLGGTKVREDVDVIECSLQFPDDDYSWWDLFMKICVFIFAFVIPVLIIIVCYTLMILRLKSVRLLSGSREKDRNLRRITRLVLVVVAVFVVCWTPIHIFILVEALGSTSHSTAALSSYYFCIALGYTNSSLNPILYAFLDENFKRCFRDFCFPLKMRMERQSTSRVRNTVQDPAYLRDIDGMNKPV
Sequence of Tyrosine-protein kinase Fyn (P06241 whole entry): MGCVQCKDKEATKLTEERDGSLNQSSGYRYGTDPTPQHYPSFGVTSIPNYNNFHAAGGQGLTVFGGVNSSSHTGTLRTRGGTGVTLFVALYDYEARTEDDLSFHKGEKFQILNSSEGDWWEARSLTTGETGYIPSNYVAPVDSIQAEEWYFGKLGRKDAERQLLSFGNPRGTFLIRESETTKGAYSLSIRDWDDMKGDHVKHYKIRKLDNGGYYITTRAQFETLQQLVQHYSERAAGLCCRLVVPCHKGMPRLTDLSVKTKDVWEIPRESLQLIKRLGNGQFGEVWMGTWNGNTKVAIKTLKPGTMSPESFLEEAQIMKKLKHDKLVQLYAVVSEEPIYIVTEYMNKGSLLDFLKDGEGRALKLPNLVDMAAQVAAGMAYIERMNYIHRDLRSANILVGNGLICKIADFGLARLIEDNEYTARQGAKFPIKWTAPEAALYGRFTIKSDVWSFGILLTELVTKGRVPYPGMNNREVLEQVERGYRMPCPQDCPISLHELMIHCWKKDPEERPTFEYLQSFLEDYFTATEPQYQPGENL

As for `Cc1ccc2cc3c(ccc4ccccc43)c3c2c1CC3` [3-METHYLCHOLANTHRENE], the IC50 entry (against Carbonic anhydrase 2; in data set [1]; against Cytochrome P450 2A6; on Caspase-1; in data set [3]; against Estrogen receptor) was “Not Active” each time. The Ki entry (on Cytochrome P450 2A6; in data set [3]) was “Not Active” each time. The pIC50 – broadly, the IC50 on a negative log10 scale, so that one unit is a factor of ten – in data set [2] is 4.60.

On to `Cc1ccc(/N=C/N(C)/C=N/c2ccc(C)cc2C)c(C)c1` [AMITRAZ], for which the IC50 result (at Carbonic anhydrase 2; in data set [1]; on Cytochrome P450 2A6; in data set [2]; on Caspase-1; in data set [3]) was “Not Active” in each case. On Estrogen receptor, the IC50 result is given as “Not Active”. Further, the Ki entry (on Cytochrome P450 2A6; in data set [3]) was “Not Active” throughout.

For the compound `C[C@H]1c2cccc(O)c2C(=O)C2=C(O)[C@]3(O)C(=O)C(C(N)=O)=C(O)[C@@H](N(C)C)[C@@H]3[C@@H](O)[C@@H]21.O` [DOXYCYCLINE], the IC50 entry (on Carbonic anhydrase 2; in data set [1]; on Cytochrome P450 2A6; in data set [2]; at Caspase-1; in data set [3]) was “Not Active” in each case. Further, in data set [4], the IC50 entry is “Not Active”. The Ki entry (at Cytochrome P450 2A6; in data set [3]) was “Not Active” in each case.

On to `O=c1[nH]c(=O)n([C@H]2C[C@H](O)[C@@H](CO)O2)cc1I` [IDOXURIDINE], for which the IC50 entry (on Carbonic anhydrase 2; in data set [1]; at Cytochrome P450 2A6; in data set [2]; against Caspase-1; in data set [3]) was “Not Active” in each case. Moreover, the IC50 entry in data set [4] is “Not Active”. Also, the Ki result (on Cytochrome P450 2A6; in data set [3]) was “Not Active” throughout.

On to `Nc1nc(N)nc(-c2cc(Cl)ccc2Cl)n1.O=C(O)/C=C\C(=O)O` [IRSOGLADINE MALEATE], for which the IC50 result (on Carbonic anhydrase 2; in data set [1]; at Cytochrome P450 2A6; in data set [2]; at Caspase-1; in data set [3]) was “Not Active” throughout. For the same compound, in data set [4], the IC50 entry is on record as “Not Active”. For the same compound, the Ki result (on Cytochrome P450 2A6; in data set [3]) was “Not Active” throughout.

As to `CCCCc1nc(Cl)c(CO)n1Cc1ccc(-c2ccccc2-c2nnn[nH]2)cc1` [LOSARTAN], the IC50 result (at Carbonic anhydrase 2; in data set [1]; at Cytochrome P450 2A6; in data set [2]; against Caspase-1; in data set [3]) was “Not Active” in each case. Further, the IC50 entry in data set [4] is “Not Active”. The Ki result (on Cytochrome P450 2A6; in data set [3]) was “Not Active” throughout.

Consider `C[C@](N)(Cc1ccc(O)c(O)c1)C(=O)O` [METHYLDOPA], for which the IC50 result (at Carbonic anhydrase 2; on Cytochrome P450 2A6; against Caspase-1; in data set [3]; in data set [4]) was “Not Active” throughout. The pIC50 in data set [1] (read-out: IC50) was 5.67; in data set [2], 5.29. Also, the Ki entry (on Cytochrome P450 2A6; in data set [3]) was “Not Active” throughout.

`Cc1ccccc1N1C(=O)c2cc(S(N)(=O)=O)c(Cl)cc2NC1C` (configuration not stated) [METOLAZONE]: the IC50 entry (against Carbonic anhydrase 2; in data set [1]; at Cytochrome P450 2A6; in data set [2]; at Caspase-1; in data set [3]) was “Not Active” throughout. Further, the IC50 result in data set [4] is “Not Active”. The Ki entry (at Cytochrome P450 2A6; in data set [3]) was “Not Active” in each case.

As for `COCCc1ccc(OCC(O)CNC(C)C)cc1` (configuration not stated) [METOPROLOL], the IC50 result (against Carbonic anhydrase 2; in data set [1]; against Cytochrome P450 2A6; in data set [2]; against Caspase-1; in data set [3]) was “Not Active” throughout. Moreover, the IC50 result in data set [4] was “Not Active”. In addition, the Ki result (at Cytochrome P450 2A6; in data set [3]) was “Not Active” each time.

`NC1=NC(=O)C(c2ccccc2)O1` (configuration not stated) [PEMOLINE]: the IC50 result (against Carbonic anhydrase 2; in data set [1]; against Cytochrome P450 2A6; in data set [2]; at Caspase-1; in data set [3]) was “Not Active” in each case. Besides, in data set [4], the IC50 entry was “Not Active”. For the same compound, the Ki entry (on Cytochrome P450 2A6; in data set [3]) was “Not Active” each time.

As to `CNNCc1ccc(C(=O)NC(C)C)cc1` [PROCARBAZINE], the IC50 entry (at Carbonic anhydrase 2; in data set [1]; against Cytochrome P450 2A6; in data set [2]; against Caspase-1; in data set [3]) was “Not Active” each time. Also, the IC50 result in data set [4] is reported as “Not Active”. In addition, the Ki result (at Cytochrome P450 2A6; in data set [3]) was “Not Active” in each case.

Take `CN(C)CCCN1c2ccccc2Sc2ccccc21` [PROMAZINE]: the IC50 entry (on Carbonic anhydrase 2; in data set [1]; against Cytochrome P450 2A6; in data set [2]; against Caspase-1; in data set [3]) was “Not Active” in each case. Further, the IC50 entry in data set [4] is reported as “Not Active”. The Ki entry (at Cytochrome P450 2A6; in data set [3]) was “Not Active” throughout.

For CADMIUM ACETATE, the IC50 entry (against Carbonic anhydrase 2; in data set [1]; against Cytochrome P450 2A6; on Caspase-1; in data set [3]; against Estrogen receptor) was “Not Active” each time. Besides, the Ki entry (at Carbonic anhydrase 2; in data set [1]; on Cytochrome P450 2A6; at Caspase-1; in data set [3]; at Estrogen receptor) was “Not Active” throughout.

In the case of LEAD (II) ACETATE, the IC50 entry (on Carbonic anhydrase 2; in data set [1]; against Cytochrome P450 2A6; against Caspase-1; in data set [3]; against Estrogen receptor) was “Not Active” in each case. Besides, the Ki entry (on Carbonic anhydrase 2; in data set [1]; on Cytochrome P450 2A6; on Caspase-1; in data set [3]; at Estrogen receptor) was “Not Active” throughout.
